Target: T1, cytosolic phosphoenolpyruvate carboxykinase (PCK1) (Rattus norvegicus, UniProt P07379)
T1 sequence (P07379 1-622): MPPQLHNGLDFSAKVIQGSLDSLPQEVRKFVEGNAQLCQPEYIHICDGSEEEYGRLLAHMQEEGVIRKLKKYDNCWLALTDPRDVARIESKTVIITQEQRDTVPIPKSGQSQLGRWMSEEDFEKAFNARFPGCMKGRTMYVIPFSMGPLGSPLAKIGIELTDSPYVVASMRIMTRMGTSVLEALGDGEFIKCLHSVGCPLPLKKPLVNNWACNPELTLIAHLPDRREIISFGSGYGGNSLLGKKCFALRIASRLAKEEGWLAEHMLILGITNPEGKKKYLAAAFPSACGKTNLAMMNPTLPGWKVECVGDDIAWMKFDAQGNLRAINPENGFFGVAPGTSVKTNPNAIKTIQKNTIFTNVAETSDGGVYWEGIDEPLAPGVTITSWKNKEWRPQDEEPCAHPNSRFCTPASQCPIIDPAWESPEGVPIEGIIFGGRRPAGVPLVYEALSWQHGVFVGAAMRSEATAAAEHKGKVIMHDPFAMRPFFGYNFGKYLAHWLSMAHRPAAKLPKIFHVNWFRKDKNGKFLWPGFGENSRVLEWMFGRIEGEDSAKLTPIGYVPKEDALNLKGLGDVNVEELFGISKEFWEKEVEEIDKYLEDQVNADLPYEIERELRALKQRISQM
Assay: STD NMR and DEEP-STD NMR
Assay type: binding

Q: How did the “STD NMR and DEEP-STD NMR” value turn out when `CC(C)(COP(=O)(O)OP(=O)(O)OC[C@H]1O[C@@H](n2cnc3c(N)ncnc32)[C@H](O)[C@@H]1OP(=O)(O)O)[C@@H](O)C(=O)NCCC(=O)NCCS` [coenzyme A] was run?
A: Its value is “STD NMR experiments showed clear STD signals for both, acetyl-CoA and CoA (see Fig. S4), confirming that they bind to PCK1”.
